According to article PMC10759558 (European journal of medicinal chemistry, 2023):

Test system: HIVLAI
Assay: Antiviral activity in MT-2 human-T-lymphoid cells exposed to HIVLAI
Assay type: cell-based, HIV-1
Conditions: for antiviral activity (in words): MT-2 cells exposed to HIVLAI

SMILES | antiviral activity (in words) | fold reduction in antiviral activity over compound 5c (MT-2 cells, HIVLAI, compared with 5c) [fold]
COc1ccc(S(=O)(=O)N(CC(C)C)C[C@@H](O)[C@H](Cc2ccccc2)NC(=O)c2cccc(Nc3nc(-c4cccnc4)cs3)c2C)cc1 [5f, N-((2S,3R)-3-hydroxy-4-((N-isobutyl-4-methoxyphenyl)sulfonamido)-1-phenylbutan-2-yl)-2-methyl-3-((4-(pyridin-3-yl)thiazol-2-yl)amino)benzamide] | did not exhibit any appreciable antiviral activity | –
COc1ccc(S(=O)(=O)N(CC(C)C)C[C@@H](O)[C@H](Cc2ccccc2)NC(=O)c2ccc(C)c(Nc3nc(C)cs3)c2)cc1 [5j, N-((2S,3R)-3-hydroxy-4-((N-isobutyl-4-methoxyphenyl)sulfonamido)-1-phenylbutan-2-yl)-4-methyl-3-((4-methylthiazol-2-yl)amino)benzamide] | did not show any appreciable antiviral activity | –
Cc1ccc(C(=O)N[C@@H](Cc2cc(F)cc(F)c2)[C@H](O)CN(CC(C)C)S(=O)(=O)c2ccc(N)cc2)cc1Nc1nccc(-c2cccnc2)n1 [5d, N-((2S,3R)-4-((4-amino-N-isobutylphenyl)sulfonamido)-1-(3,5-difluorophenyl)-3-hydroxybutan-2-yl)-4-methyl-3-((4-(pyridin-3-yl)pyrimidin-2-yl)amino)benzamide] | – | 3
